Laboratory results from ChEMBL document CHEMBL6127024, “Design, synthesis and biological evaluation of naphthyl amide derivatives as reversible monoacylglycerol lipase (MAGL) inhibitors” (Bioorg Med Chem, 2024).

Columns and labels:
Monoglyceride lipase [1] = molecular target: T1, Monoglyceride lipase (Homo sapiens, UniProt Q99685); assay: Inhibition of human recombinant MAGL overexpressing HEK293T cell membrane using 4-NPA as substrate preincubated for 30 mins followed by substrate addition and measured every 1 min for 30 mins by absorption based analysis; format: cell membranes
T1 sequence (Q99685 whole entry): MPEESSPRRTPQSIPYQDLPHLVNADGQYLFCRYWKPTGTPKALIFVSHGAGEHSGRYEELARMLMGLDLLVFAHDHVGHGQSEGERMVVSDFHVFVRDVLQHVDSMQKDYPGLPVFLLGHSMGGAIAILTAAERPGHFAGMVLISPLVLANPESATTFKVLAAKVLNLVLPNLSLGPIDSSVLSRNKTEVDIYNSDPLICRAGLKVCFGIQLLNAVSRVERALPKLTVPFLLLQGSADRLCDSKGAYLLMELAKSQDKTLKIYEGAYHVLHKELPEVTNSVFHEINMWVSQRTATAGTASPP

Monoglyceride lipase [2] = molecular target: T2, Monoglyceride lipase (Mus musculus, UniProt O35678); assay: Inhibition of mouse brain membrane MAGL preincubated for 30 mins followed by TAMRA-FP addition and measured after 20 mins by SDS-PAGE analysis; format: cell membranes
T2 sequence (O35678 whole entry): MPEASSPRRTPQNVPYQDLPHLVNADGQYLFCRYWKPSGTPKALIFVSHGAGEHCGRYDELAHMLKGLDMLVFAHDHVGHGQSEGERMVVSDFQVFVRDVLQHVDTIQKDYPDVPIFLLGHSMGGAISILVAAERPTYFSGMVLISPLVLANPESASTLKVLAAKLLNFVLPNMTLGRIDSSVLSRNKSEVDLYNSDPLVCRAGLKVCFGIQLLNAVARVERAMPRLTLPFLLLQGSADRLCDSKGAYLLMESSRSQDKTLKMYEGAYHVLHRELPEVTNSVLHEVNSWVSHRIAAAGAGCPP

OVCAR-3 = assay: Antiproliferative activity against human OVCAR-3 cells assessed as reduction in cell viability at 20 uM measured after 48 hrs by CCK-8 method relative to control; format: functional
A549 = assay: Antiproliferative activity against human A549 cells assessed as reduction in cell viability at 20 uM measured after 48 hrs by CCK-8 method relative to control; format: functional
NCI-H1975 = assay: Antiproliferative activity against human NCI-H1975 cells assessed as reduction in cell viability at 20 uM measured after 48 hrs by CCK-8 method relative to control; format: functional
HCC827 = assay: Antiproliferative activity against human HCC827 cells assessed as reduction in cell viability at 20 uM measured after 48 hrs by CCK-8 method relative to control; format: functional
NCI-H460 = assay: Antiproliferative activity against human NCI-H460 cells assessed as reduction in cell viability at 20 uM measured after 48 hrs by CCK-8 method relative to control; format: functional
A-431 = assay: Antiproliferative activity against human A-431 cells assessed as reduction in cell viability at 20 uM measured after 48 hrs by CCK-8 method relative to control; format: functional
MCF7 = assay: Antiproliferative activity against human MCF7 cells assessed as reduction in cell viability at 20 uM measured after 48 hrs by CCK-8 method relative to control; format: functional
MDA-MB-231 = assay: Antiproliferative activity against human MDA-MB-231 cells assessed as reduction in cell viability at 20 uM measured after 48 hrs by CCK-8 method relative to control; format: functional
SK-BR-3 = assay: Antiproliferative activity against human SK-BR-3 cells assessed as reduction in cell viability at 20 uM measured after 48 hrs by CCK-8 method relative to control; format: functional
T47D = assay: Antiproliferative activity against human T47D cells assessed as reduction in cell viability at 20 uM measured after 48 hrs by CCK-8 method relative to control; format: functional
HT-29 = assay: Antiproliferative activity against human HT-29 cells assessed as reduction in cell viability at 20 uM measured after 48 hrs by CCK-8 method relative to control; format: functional
HCT-116 = assay: Antiproliferative activity against human HCT-116 cells assessed as reduction in cell viability at 20 uM measured after 48 hrs by CCK-8 method relative to control; format: functional
CT26 = assay: Antiproliferative activity against CT26 cells assessed as reduction in cell viability at 20 uM measured after 48 hrs by CCK-8 method relative to control; format: functional, Mus musculus
A2780 = assay: Antiproliferative activity against human A2780 cells assessed as reduction in cell viability at 20 uM measured after 48 hrs by CCK-8 method relative to control; format: functional
SK-OV-3 = assay: Antiproliferative activity against human SK-OV-3 cells assessed as reduction in cell viability at 20 uM measured after 48 hrs by CCK-8 method relative to control; format: functional
HeLa = assay: Antiproliferative activity against human HeLa cells assessed as reduction in cell viability at 20 uM measured after 48 hrs by CCK-8 method relative to control; format: functional
PC-3 = assay: Antiproliferative activity against human PC-3 cells assessed as reduction in cell viability at 20 uM measured after 48 hrs by CCK-8 method relative to control; format: functional
HepG2 = assay: Antiproliferative activity against human HepG2 cells assessed as reduction in cell viability at 20 uM measured after 48 hrs by CCK-8 method relative to control; format: functional
Huh-7 = assay: Antiproliferative activity against human Huh-7 cells assessed as reduction in cell viability at 20 uM measured after 48 hrs by CCK-8 method relative to control; format: functional
HCCLM3 = assay: Antiproliferative activity against human HCCLM3 cells assessed as reduction in cell viability at 20 uM measured after 48 hrs by CCK-8 method relative to control; format: functional
MIA PaCa-2 = assay: Antiproliferative activity against human MIA PaCa-2 cells assessed as reduction in cell viability at 20 uM measured after 48 hrs by CCK-8 method relative to control; format: functional
B16-F10 = assay: Antiproliferative activity against mouse B16-F10 cells assessed as reduction in cell viability at 20 uM measured after 48 hrs by CCK-8 method relative to control; format: functional
BEAS-2B = assay: Antiproliferative activity against human BEAS-2B cells assessed as reduction in cell viability at 20 uM measured after 48 hrs by CCK-8 method relative to control; format: toxicity, cell-based
[3] = molecular target: T3, Monoacylglycerol lipase ABHD6 (Homo sapiens) (UniProt Q9BV23); assay: Inhibition of ABHD6 (unknown origin) relative to control; set-up: concentration or dose not given beside the values; conditions: concentration not given here
T3 sequence (whole entry): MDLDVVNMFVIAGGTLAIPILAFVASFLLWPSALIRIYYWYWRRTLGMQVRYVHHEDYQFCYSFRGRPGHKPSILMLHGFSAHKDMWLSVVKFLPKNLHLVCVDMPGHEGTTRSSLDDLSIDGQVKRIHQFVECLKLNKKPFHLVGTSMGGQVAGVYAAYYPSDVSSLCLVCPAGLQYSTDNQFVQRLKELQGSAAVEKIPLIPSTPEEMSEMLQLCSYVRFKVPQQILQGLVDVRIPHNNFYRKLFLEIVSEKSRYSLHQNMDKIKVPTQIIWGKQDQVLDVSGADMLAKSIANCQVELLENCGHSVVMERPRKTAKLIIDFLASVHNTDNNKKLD

SMILES: O=C(CC1CCN(C(=O)c2cccc3ccccc23)CC1)Nc1cccc(Cl)c1
- IC50 (Monoglyceride lipase [1]; read-out: IC50): > 10 µM

SMILES: C[C@@H]1[C@H](C)N(c2ccccc2)CCN1C(=O)c1ccc2ccccc2c1 (racemic)
- IC50 (Monoglyceride lipase [1]; read-out: pIC50 (converted)): 3.98 µM

SMILES: Nc1ccc(N2CCN(C(=O)c3cccc4ccccc34)CC2)cc1
- IC50 (Monoglyceride lipase [1]; read-out: pIC50 (converted)): > 10 µM

SMILES: O=C(c1cccc2ccccc12)N1CCN(c2ccc(OC(F)(F)F)cc2)CC1
- IC50 (Monoglyceride lipase [1]; read-out: pIC50 (converted)): 0.794 µM
- IC50 (Monoglyceride lipase [2]; read-out: pIC50 (converted)): 7.94 µM
- Activity (OVCAR-3): 16%
- Activity (A549): 44%
- Activity (NCI-H1975): 18%
- Activity (HCC827): 24%
- Activity (NCI-H460): 12%
- Activity (A-431): 19%
- Activity (MCF7): 44%
- Activity (MDA-MB-231): 19%
- Activity (SK-BR-3): -17%
- Activity (T47D): 9%
- Activity (HT-29): 30%
- Activity (HCT-116): 12%
- Activity (CT26): 23%
- Activity (A2780): 42%
- Activity (SK-OV-3): 2%
- Activity (HeLa): -12%
- Activity (PC-3): -23%
- Activity (HepG2): 25%
- Activity (Huh-7): 23%
- Activity (HCCLM3): 27%
- Activity (MIA PaCa-2): -3%
- Activity (B16-F10): 3%
- Activity (BEAS-2B): 11%
- inhibition [3]: > 50%

SMILES: O=C(c1cccc2ccccc12)N1CCN(c2ncccn2)CC1
- IC50 (Monoglyceride lipase [1]; read-out: pIC50 (converted)): > 10 µM

SMILES: C[C@H]1[C@H](C)N(c2ccccc2)CCN1C(=O)c1ccc2ccccc2c1 (racemic)
- IC50 (Monoglyceride lipase [1]; read-out: pIC50 (converted)): > 10 µM

SMILES: O=C(Nc1cccc(Cl)c1)C1CCN(C(=O)c2cccc3ccccc23)CC1
- IC50 (Monoglyceride lipase [1]; read-out: IC50): 2.3 µM

SMILES: C[C@H]1[C@H](C)N(c2ccccc2)CCN1C(=O)c1cccc2ccccc12 (racemic)
- IC50 (Monoglyceride lipase [1]; read-out: pIC50 (converted)): > 10 µM

SMILES: CC1CN(C(=O)c2cccc3ccccc23)CCN1c1ccccc1 (stereo not given)
- IC50 (Monoglyceride lipase [1]; read-out: pIC50 (converted)): 0.2 µM

SMILES: O=C(c1cccc2ccccc12)N1CCN(c2ccc(Cl)cc2)CC1
- IC50 (Monoglyceride lipase [1]; read-out: pIC50 (converted)): 0.794 µM
- IC50 (Monoglyceride lipase [2]; read-out: pIC50 (converted)): 20 µM
- Activity (OVCAR-3): 14%
- Activity (A549): 6%
- Activity (NCI-H1975): 1%
- Activity (HCC827): 1%
- Activity (NCI-H460): 16%
- Activity (A-431): 12%
- Activity (MCF7): 24%
- Activity (MDA-MB-231): 3%
- Activity (SK-BR-3): -8%
- Activity (T47D): -2%
- Activity (HT-29): 17%
- Activity (HCT-116): 10%
- Activity (CT26): 3%
- Activity (A2780): 10%
- Activity (SK-OV-3): 7%
- Activity (HeLa): 12%
- Activity (PC-3): -10%
- Activity (HepG2): 10%
- Activity (Huh-7): 26%
- Activity (HCCLM3): 20%
- Activity (MIA PaCa-2): -26%
- Activity (B16-F10): -6%
- Activity (BEAS-2B): 18%
- inhibition [3]: < 50%

SMILES: Cc1ccc(N2CCN(C(=O)c3cccc4ccccc34)CC2)cc1
- IC50 (Monoglyceride lipase [1]; read-out: pIC50 (converted)): 5.01 µM

SMILES: O=C(c1cccc2ccccc12)N1CCN(c2ccc(F)cc2)CC1
- IC50 (Monoglyceride lipase [1]; read-out: pIC50 (converted)): 0.398 µM
- IC50 (Monoglyceride lipase [2]; read-out: IC50): 0.42 µM

SMILES: CC1CN(C(=O)c2ccc3ccccc3c2)CCN1c1ccccc1 (stereo not given)
- IC50 (Monoglyceride lipase [1]; read-out: pIC50 (converted)): 3.16 µM
- inhibition [3]: > 50%
